# Experimental data from publication PMC5218480 (PLoS ONE, 2017).
# System: MV-4-11 cells
# Test: Gene expression microarray analysis (Affymetrix PrimeView) and GSEA
# Format: cell-based, human
# Parameters: RFU PODN (11730768_x_at) / Fold change /veh PODN (11730768_x_at) / RFU LINC00158 (11744669_a_at) / Fold change /veh LINC00158 (11744669_a_at) / RFU DUSP10 (11751237_a_at) / Fold change /veh DUSP10 (11751237_a_at) / RFU ID3 (11757404_x_at) / Fold change /veh ID3 (11757404_x_at) / RFU PLEKHG5 (11737974_s_at) / Fold change /veh PLEKHG5 (11737974_s_at) / RFU LRRC4B (11730491_at) / Fold change /veh LRRC4B (11730491_at) / RFU GIMAP4 (11747438_a_at) / Fold change /veh GIMAP4 (11747438_a_at) / RFU KRT8 (11758183_x_at) / Fold change /veh KRT8 (11758183_x_at) / RFU CNN1 (11734310_a_at) / Fold change /veh CNN1 (11734310_a_at) / RFU VPS37D (11726825_at) / Fold change /veh VPS37D (11726825_at) / RFU C10orf10 (11716522_x_at) / Fold change /veh C10orf10 (11716522_x_at) / RFU KIR2DL2 /// KIR2DL4 /// KIR2DL5A /// KIR2DL5B /// KIR2DS1 /// KIR2DS2 /// KIR2DS3 /// KIR2DS4 /// KIR3DL3 /// KIR3DL3 /// KIR3DS1 (11738374_at) / Fold change /veh KIR2DL2 /// KIR2DL4 /// KIR2DL5A /// KIR2DL5B /// KIR2DS1 /// KIR2DS2 /// KIR2DS3 /// KIR2DS4 /// KIR3DL3 /// KIR3DL3 /// KIR3DS1 (11738374_at) / RFU C1QL1 (11718748_at) / Fold change /veh C1QL1 (11718748_at) / RFU TMPRSS4 (11747572_a_at) / Fold change /veh TMPRSS4 (11747572_a_at) / RFU HAMP (11756126_x_at) / Fold change /veh HAMP (11756126_x_at) / RFU RNFT2 (11725882_a_at) / Fold change /veh RNFT2 (11725882_a_at) / RFU NR4A2 (11747474_a_at) / Fold change /veh NR4A2 (11747474_a_at) / RFU ABCC12 (11746883_a_at) / Fold change /veh ABCC12 (11746883_a_at) / RFU TMEM136 (11760407_x_at) / Fold change /veh TMEM136 (11760407_x_at) / RFU CLDN22 /// WWC2 (11732394_at) / Fold change /veh CLDN22 /// WWC2 (11732394_at) / RFU HLA-DPB1 (11760878_x_at) / Fold change /veh HLA-DPB1 (11760878_x_at) / RFU SPINT1 (11716480_a_at) / Fold change /veh SPINT1 (11716480_a_at) / RFU GAP43 (11754022_s_at) / Fold change /veh GAP43 (11754022_s_at) / RFU A4GNT (11735810_at) / Fold change /veh A4GNT (11735810_at) / RFU PRB3 (11715151_x_at) / Fold change /veh PRB3 (11715151_x_at) / RFU TUBB4B (11761932_at) / Fold change /veh TUBB4B (11761932_at) / RFU CAPN14 (11732068_a_at) / Fold change /veh CAPN14 (11732068_a_at) / RFU TMCC2 (11721928_a_at) / Fold change /veh TMCC2 (11721928_a_at) / RFU IRGQ (11745062_a_at) / Fold change /veh IRGQ (11745062_a_at) / RFU FAM174B (11720279_a_at) / Fold change /veh FAM174B (11720279_a_at) / RFU TMPRSS4 (11748680_a_at) / Fold change /veh TMPRSS4 (11748680_a_at) / RFU FAM212B (11763350_a_at) / Fold change /veh FAM212B (11763350_a_at) / RFU PLEKHG5 (11743358_a_at) / Fold change /veh PLEKHG5 (11743358_a_at) / RFU ZSCAN30 (11745921_a_at) / Fold change /veh ZSCAN30 (11745921_a_at) / RFU CMKLR1 (11741424_a_at) / Fold change /veh CMKLR1 (11741424_a_at) / RFU LOC101060620 /// MAPK8IP1 (11723275_at) / Fold change /veh LOC101060620 /// MAPK8IP1 (11723275_at) / RFU SPTSSB (11747773_x_at) / Fold change /veh SPTSSB (11747773_x_at) / RFU PRSS12 (11739890_at) / Fold change /veh PRSS12 (11739890_at) / RFU BIN1 (11741810_x_at) / Fold change /veh BIN1 (11741810_x_at) / RFU WNT11 (11732464_a_at) / Fold change /veh WNT11 (11732464_a_at) / RFU C10orf10 (11716521_a_at) / Fold change /veh C10orf10 (11716521_a_at) / RFU C5orf56 (11738089_at) / Fold change /veh C5orf56 (11738089_at) / RFU CYB561 (11721691_x_at) / Fold change /veh CYB561 (11721691_x_at) / RFU ANKRD19P (11752326_a_at) / Fold change /veh ANKRD19P (11752326_a_at) / RFU OR2T12 /// OR2T33 /// OR2T8 (11738714_s_at) / Fold change /veh OR2T12 /// OR2T33 /// OR2T8 (11738714_s_at) / RFU VCAN (11748164_a_at) / Fold change /veh VCAN (11748164_a_at) / RFU JSRP1 (11732532_at) / Fold change /veh JSRP1 (11732532_at) / RFU KRTAP10-11 (11738290_x_at) / Fold change /veh KRTAP10-11 (11738290_x_at) / RFU MYO3A (11730013_a_at) / Fold change /veh MYO3A (11730013_a_at) / RFU EBF3 (11725865_a_at) / Fold change /veh EBF3 (11725865_a_at) / RFU CAMK2N1 (11719241_x_at) / Fold change /veh CAMK2N1 (11719241_x_at) / RFU C5orf56 (11738088_a_at) / Fold change /veh C5orf56 (11738088_a_at) / RFU OLFML3 (11715873_a_at) / Fold change /veh OLFML3 (11715873_a_at) / RFU LOC100653217 /// NTM (11731650_a_at) / Fold change /veh LOC100653217 /// NTM (11731650_a_at) / RFU MAPK11 (11762145_a_at) / Fold change /veh MAPK11 (11762145_a_at) / RFU FIZ1 (11724087_x_at) / Fold change /veh FIZ1 (11724087_x_at) / RFU OASL (11726364_x_at) / Fold change /veh OASL (11726364_x_at) / RFU SOX15 (11748057_x_at) / Fold change /veh SOX15 (11748057_x_at) / RFU CD79A (11719716_a_at) / Fold change /veh CD79A (11719716_a_at) / RFU HIST1H1D (11736915_at) / Fold change /veh HIST1H1D (11736915_at) / RFU CASKIN2 (11723855_a_at) / Fold change /veh CASKIN2 (11723855_a_at) / RFU LOC730098 (11760151_x_at) / Fold change /veh LOC730098 (11760151_x_at) / RFU OR4N2 (11742367_at) / Fold change /veh OR4N2 (11742367_at) / RFU PRRT2 (11749266_a_at) / Fold change /veh PRRT2 (11749266_a_at) / RFU SNX32 (11753110_a_at) / Fold change /veh SNX32 (11753110_a_at) / RFU CDHR5 (11726645_a_at) / Fold change /veh CDHR5 (11726645_a_at) / RFU RCAN1 (11760418_a_at) / Fold change /veh RCAN1 (11760418_a_at) / RFU FAM167A (11723789_a_at) / Fold change /veh FAM167A (11723789_a_at) / RFU FAM26E (11764081_at) / Fold change /veh FAM26E (11764081_at) / RFU ISYNA1 (11749810_s_at) / Fold change /veh ISYNA1 (11749810_s_at) / RFU ACY1 (11761880_at) / Fold change /veh ACY1 (11761880_at) / RFU 11764098_at / Fold change /veh 11764098_at / RFU SAMD14 (11745864_x_at) / Fold change /veh SAMD14 (11745864_x_at) / RFU NPB (11741838_a_at) / Fold change /veh NPB (11741838_a_at) / RFU TMPRSS6 (11731388_a_at) / Fold change /veh TMPRSS6 (11731388_a_at) / RFU KRTAP10-2 (11738614_at) / Fold change /veh KRTAP10-2 (11738614_at) / RFU ARHGAP8 /// PRR5-ARHGAP8 (11727945_x_at) / Fold change /veh ARHGAP8 /// PRR5-ARHGAP8 (11727945_x_at) / RFU KRTAP5-7 /// NADSYN1 (11734609_at) / Fold change /veh KRTAP5-7 /// NADSYN1 (11734609_at) / RFU RASL12 (11751679_a_at) / Fold change /veh RASL12 (11751679_a_at) / RFU CDKN2B (11736163_a_at) / Fold change /veh CDKN2B (11736163_a_at) / RFU PRF1 (11729649_at) / Fold change /veh PRF1 (11729649_at) / RFU, ZNF638 /// ZNF638-IT1 / Fold change vs veh, ZNF638 /// ZNF638-IT1 / RFU, PANK3 / Fold change vs veh, PANK3 / RFU, SH3YL1 / Fold change vs veh, SH3YL1 / RFU, ZEB2 / Fold change vs veh, ZEB2 / RFU, NRIP1 / Fold change vs veh, NRIP1 / RFU, PTTG1IP / Fold change vs veh, PTTG1IP / RFU, CAPN2 / Fold change vs veh, CAPN2 / RFU, MED14 / Fold change vs veh, MED14 / RFU, SNORA58 / Fold change vs veh, SNORA58 / RFU, C1orf63 / Fold change vs veh, C1orf63 / RFU, LRRFIP1 / Fold change vs veh, LRRFIP1 / RFU, NDUFAF7 / Fold change vs veh, NDUFAF7 / RFU, SLC12A2 / Fold change vs veh, SLC12A2 / RFU, IBTK / Fold change vs veh, IBTK / RFU, ESF1 / Fold change vs veh, ESF1 / Fold change vs veh, TMEM50B / RFU, TAOK1 / Fold change vs veh, TAOK1 / RFU, ACBD3 / Fold change vs veh, ACBD3 / RFU, TMA16 / Fold change vs veh, TMA16 / RFU, RWDD3 / Fold change vs veh, RWDD3 / RFU, BCAT1 / Fold change vs veh, BCAT1 / RFU, EDEM3 / Fold change vs veh, EDEM3 / RFU, TMEM33 / Fold change vs veh, TMEM33 / RFU, WDR75 / Fold change vs veh, WDR75 / RFU, AHCTF1 / Fold change vs veh, AHCTF1 / RFU, TFRC / Fold change vs veh, TFRC / RFU, ZDHHC17 / Fold change vs veh, ZDHHC17 / RFU, NOM1 / Fold change vs veh, NOM1 / RFU, ARL8B / Fold change vs veh, ARL8B / RFU, ZBTB11 / Fold change vs veh, ZBTB11 / RFU, TAMM41 / Fold change vs veh, TAMM41 / RFU, KIAA1704 /// LOC100996395 / Fold change vs veh, KIAA1704 /// LOC100996395 / RFU, ING1 / Fold change vs veh, ING1 / RFU, TRMT61B / Fold change vs veh, TRMT61B / RFU, FUBP3 / Fold change vs veh, FUBP3 / RFU, TP53 / Fold change vs veh, TP53 / RFU, TNKS2 / Fold change vs veh, TNKS2 / RFU, ZFP14 / Fold change vs veh, ZFP14 / RFU, ACTR2 / Fold change vs veh, ACTR2 / RFU, PPP3R1 / Fold change vs veh, PPP3R1 / RFU, PIK3R1 / Fold change vs veh, PIK3R1 / RFU, HNRNPA1 / Fold change vs veh, HNRNPA1 / RFU, RNF170 / Fold change vs veh, RNF170 / RFU, ZNF28 / Fold change vs veh, ZNF28 / RFU, RNGTT / Fold change vs veh, RNGTT / RFU, OGT / Fold change vs veh, OGT / RFU, BRD1 / Fold change vs veh, BRD1 / RFU, MARS / Fold change vs veh, MARS / RFU, ZNF655 / Fold change vs veh, ZNF655 / RFU, FAHD1 / Fold change vs veh, FAHD1 / RFU, BDP1 / Fold change vs veh, BDP1 / RFU, LRRCC1 / Fold change vs veh, LRRCC1 / RFU, ARID1A / Fold change vs veh, ARID1A / RFU, ZNF146 / Fold change vs veh, ZNF146 / RFU, ZNF330 / Fold change vs veh, ZNF330 / RFU, GPN3 / Fold change vs veh, GPN3 / RFU, C9orf123 / Fold change vs veh, C9orf123 / RFU, N4BP2L2 / Fold change vs veh, N4BP2L2 / RFU, ARFIP1 / Fold change vs veh, ARFIP1 / RFU, FAM179B / Fold change vs veh, FAM179B / RFU, BCL10 / Fold change vs veh, BCL10 / RFU, UHRF1BP1L / Fold change vs veh, UHRF1BP1L / RFU, BET1 / Fold change vs veh, BET1 / RFU, CNOT2 / Fold change vs veh, CNOT2 / RFU, ZNF268 / Fold change vs veh, ZNF268 / Fold change vs veh, ZNF507 / RFU, DGCR2 / Fold change vs veh, DGCR2 / RFU, WDSUB1 / Fold change vs veh, WDSUB1 / Fold change vs veh, HSP90B1 /// MIR3652 / RFU, ADSS / Fold change vs veh, ADSS / RFU, GK / Fold change vs veh, GK / RFU, ZNF148 / Fold change vs veh, ZNF148 / RFU, TAF9 / Fold change vs veh, TAF9 / RFU, SLC1A5 / Fold change vs veh, SLC1A5 / RFU, SLMO2 / Fold change vs veh, SLMO2 / RFU, ABCC4 / Fold change vs veh, ABCC4 / RFU, LOC101060439 /// RAP1B / Fold change vs veh, LOC101060439 /// RAP1B / RFU, RFX7 / Fold change vs veh, RFX7 / RFU, GTPBP10 / Fold change vs veh, GTPBP10 / RFU, CNEP1R1 / Fold change vs veh, CNEP1R1 / RFU, BIVM-ERCC5 /// ERCC5 / Fold change vs veh, BIVM-ERCC5 /// ERCC5 / RFU, ILF3 / Fold change vs veh, ILF3 / RFU 11762660_at / Fold change /veh 11762660_at / RFU VCAN (11757783_s_at) / Fold change /veh VCAN (11757783_s_at) / RFU DDX43 (11728927_at) / Fold change /veh DDX43 (11728927_at) / RFU KRT8 (11758188_x_at) / Fold change /veh KRT8 (11758188_x_at) / RFU NKD1 (11759106_at) / Fold change /veh NKD1 (11759106_at) / RFU SRD5A1 (11742802_a_at) / Fold change /veh SRD5A1 (11742802_a_at) / RFU TPSAB1 /// TPSB2 (11721975_s_at) / Fold change /veh TPSAB1 /// TPSB2 (11721975_s_at) / RFU GSTM3 (11746129_a_at) / Fold change /veh GSTM3 (11746129_a_at) / RFU IL23R (11737362_x_at) / Fold change /veh IL23R (11737362_x_at) / RFU TMEM51 (11727254_a_at) / Fold change /veh TMEM51 (11727254_a_at) / RFU PIWIL2 (11732686_x_at) / Fold change /veh PIWIL2 (11732686_x_at) / RFU ORM1 (11744905_x_at) / Fold change /veh ORM1 (11744905_x_at) / RFU CCDC152 (11743942_at) / Fold change /veh CCDC152 (11743942_at) / RFU ECM1 (11717891_a_at) / Fold change /veh ECM1 (11717891_a_at) / RFU IL23R (11748794_a_at) / Fold change /veh IL23R (11748794_a_at) / RFU TNFAIP8L3 (11732012_x_at) / Fold change /veh TNFAIP8L3 (11732012_x_at) / RFU MBOAT4 (11741988_at) / Fold change /veh MBOAT4 (11741988_at) / RFU 11764193_at / Fold change /veh 11764193_at / RFU TMEM53 (11763286_at) / Fold change /veh TMEM53 (11763286_at) / RFU MAGEB2 (11727129_at) / Fold change /veh MAGEB2 (11727129_at) / RFU TMEM200A (11744735_a_at) / Fold change /veh TMEM200A (11744735_a_at) / RFU CCDC152 (11751479_a_at) / Fold change /veh CCDC152 (11751479_a_at) / RFU FAM211A (11726209_a_at) / Fold change /veh FAM211A (11726209_a_at) / RFU RGS16 (11746705_a_at) / Fold change /veh RGS16 (11746705_a_at) / RFU VCAN (11755009_s_at) / Fold change /veh VCAN (11755009_s_at) / RFU RHOB (11743442_s_at) / Fold change /veh RHOB (11743442_s_at) / RFU RGS16 (11720943_a_at) / Fold change /veh RGS16 (11720943_a_at) / RFU RGS16 (11720944_at) / Fold change /veh RGS16 (11720944_at) / RFU, VPS4B / Fold change vs veh, VPS4B / RFU, CREB1 / Fold change vs veh, CREB1 / RFU, DNAJC13 / Fold change vs veh, DNAJC13 / RFU, GNAQ / Fold change vs veh, GNAQ / RFU, CDK5R1 / Fold change vs veh, CDK5R1 / RFU, ZRANB3 / Fold change vs veh, ZRANB3 / RFU, CUL4A / Fold change vs veh, CUL4A / RFU, CCNY / Fold change vs veh, CCNY / RFU, UFL1 / Fold change vs veh, UFL1 / RFU, COG3 / Fold change vs veh, COG3 / RFU, DIAPH2 / Fold change vs veh, DIAPH2 / RFU, SKA2 / Fold change vs veh, SKA2 / RFU, AFF3 / Fold change vs veh, AFF3 / RFU, LMF1 / Fold change vs veh, LMF1 / RFU, IPO11 / Fold change vs veh, IPO11 / RFU, DFFB / Fold change vs veh, DFFB / RFU, FOXP1 / Fold change vs veh, FOXP1 / RFU, CARD8 / Fold change vs veh, CARD8 / RFU, STRN3 / Fold change vs veh, STRN3 / RFU, ADK / Fold change vs veh, ADK / RFU, RASSF2 / Fold change vs veh, RASSF2 / RFU, WIPF1 / Fold change vs veh, WIPF1 / RFU, LARP1B / Fold change vs veh, LARP1B / RFU, RASA1 / Fold change vs veh, RASA1 / RFU, RB1 / Fold change vs veh, RB1 / RFU, PPFIA1 / Fold change vs veh, PPFIA1 / RFU, MAT2A / Fold change vs veh, MAT2A / RFU, CCT5 / Fold change vs veh, CCT5 / RFU, WDR92 / Fold change vs veh, WDR92 / RFU, CUX1 / Fold change vs veh, CUX1 / RFU, TTC7A / Fold change vs veh, TTC7A / RFU, TMEM135 / Fold change vs veh, TMEM135 / RFU, DEPTOR / Fold change vs veh, DEPTOR / RFU, CPM / Fold change vs veh, CPM / RFU, DNAJB6 / Fold change vs veh, DNAJB6 / RFU, CACNA2D3 / Fold change vs veh, CACNA2D3 / RFU, DTX4 / Fold change vs veh, DTX4 / RFU, TFCP2 / Fold change vs veh, TFCP2 / RFU, GMCL1 /// GMCL1P1 / Fold change vs veh, GMCL1 /// GMCL1P1 / RFU, AEBP2 / Fold change vs veh, AEBP2 / RFU, SNHG1 /// SNORD22 /// SNORD25 /// SNORD26 /// SNORD27 /// SNORD28 /// SNORD29 /// SNORD31 / Fold change vs veh, SNHG1 /// SNORD22 /// SNORD25 /// SNORD26 /// SNORD27 /// SNORD28 /// SNORD29 /// SNORD31 / Fold change (Aza/veh), C12orf56 (ProbeSet 11735607_a_at) / Fold change (ACY-1035/veh), C12orf56 (ProbeSet 11735607_a_at) / Fold change (Aza/veh), FGFR1OP (ProbeSet 11751329_s_at) / Fold change (ACY-1035/veh), FGFR1OP (ProbeSet 11751329_s_at) / Fold change (Aza/veh), VPS36 (ProbeSet 11739960_a_at) / Fold change (ACY-1035/veh), VPS36 (ProbeSet 11739960_a_at) / RFU SYPL1 (11715823_x_at) / Fold change /veh SYPL1 (11715823_x_at) / RFU IGFBP7 (11715501_s_at) / Fold change /veh IGFBP7 (11715501_s_at) / RFU REEP3 (11722064_at) / Fold change /veh REEP3 (11722064_at) / RFU IGLL1 (11728026_x_at) / Fold change /veh IGLL1 (11728026_x_at): dose or concentration left out as unconfirmed
# Conditions: ProbeSet 11721521_at; LIST B
smiles,measurement,value
Nc1ncn([C@@H]2O[C@H](CO)[C@@H](O)[C@H]2O)c(=O)n1 [azacitidine],"RFU, ZDHHC17",48.06 RFU
